The conditions of series [1]: cited from earlier work.
The subject of series [2] is hTSLP (human total soluble lens protein). Put plainly: Turbidity assay of human total soluble lens protein aggregation (absorbance at 400 nm). The series is classed as biochemical. Conditions: for effect on Aβ-potentiated hTSLP aggregation: added during incubation of hTSLP with hAβ1-42; for promotion of hTSLP/hTLP aggregation: hTSLP 1 mg/ml, 37° C. in the dark, peptide added. As to the method:
Human lenses with intact capsules were dissected from whole globes and homogenized in 1 mL HPLC water. The homogenate was centrifuged for at 100,000×g for 1 hour at 4° C. and the supernatant utilized as hTLSP. Protein concentration was determined using a commercially available kit (Pierce). The final hTSLP concentration was 1 mg/mL.
Test solutions of hTSLP (1 mg/ml) were plated to a final volume of 200 μL per well in 96 well microtiter plates with black sidewalls. Peptides and/or inhibitors were added to these solutions as indicated. Plates were incubated in the dark at 37° C. under humidified, CO2-balanced conditions. Turbidity (optical density) was assessed on a SpectraMax-Plus spectrophotometric plate reader set at a wavelength of 400 nm.
(§1) Aggregation experiments were carried out in 96 well black micro titer plates, in the 2dark. Depending on the experiment, a combination of 20 μL of 10× lenticular protein (final concentration 1 mg/mL), 20 μL of 10× chelator solution (final concentration 200 μM), 20 μL of Catalase and/or SOD (final concentrations of 500 U/mL and 100 U/mL respectively), 20 μL of Aβ (final concentration of 10 μM), 20 μL of metal solution (final concentration 1 μM), and an amount of PBS buffer to bring the total volume in the well to 200 μL. hTLP aggregation or bTLP aggregation was monitored by observing an increase in absorbance at 400 nm using a Spectramax UV-V is spectrophotometer.

Series [3] has the same test system. Put plainly: Thioflavin-T fluorescence (total β-sheet content of protein mixture). It is filed as biochemical. Conditions: added during incubation of hTSLP with hAβ1-42. The method, then:
Fluorescence assays were conducted according to a standard protocols.
To determine whether the Aβ-induced aggregation of hTSLP was accompanied by conformational changes, the total β-sheet content of the protein mixture was measured by monitoring thioflavin-T fluorescence.

Series [4] has as its system bTLP (bovine lens protein). The series can be described thus: Spontaneous bovine lens protein (bTLP) aggregation, absorbance at 400 nm. The series is classed as biochemical. Conditions: 37° C. in the dark. As to the method: Filtered phosphate buffered saline solution (pH 7.4) was treated with chelex and used to make stock solutions (10×) for all reagents (chemical or biological). Protein stock solution at a concentration of 10 mg/mL was prepared from the supernatant as described above. Stock solutions of chelators (ethylenediaminetetraacetic acid (EDTA), diethylenetriaminepentaacetic acid (DTPA), or triethylenetetramine (TETA)) were made up at a concentration of 2 mM freshly prepared in PBS. Stock solutions of Catalase and SOD were freshly prepared in PBS to have an activity of 5000 U/mL and 1000 U/mL respectively. Aβ was prepared as a suspension (100 uM) in PBS or HPLC water by sonicating for three minutes such that only monomers or dimers remained. Metals were prepared as a 10 μM solution; Cu is prepared as Cu:glycine (1:6) from copper sulfate.
as §1
The influence of Reactive Oxygen Species ((ROS), Cu/Zn Superoxide Dismutase (SOD), Catalase (Cat)) on spontaneous bTLP aggregation was analyzed.

Series [5] deals with hTSLP (human total soluble lens protein). Put plainly: Precipitation study of hTSLP incubated with hAβ1-42. Conditions: added during incubation of hTSLP with hAβ1-42. It is filed as biochemical. As to the method:
Solutions of hTSLP (1 mg/ml) were incubated with or without hAβ1-42 (10 μM; 45 μg/ml) for 0 or 7 days. The resulting mixtures were then centrifuged at 15,000×g for 15 min and separated into pellet and supernatant fractions. The amount of pelleted protein was calculated by subtracting the supernatant protein concentration on Day 7 from the initial concentration on Day 0.

The values that follow come from patent US7653428B2, “Methods for diagnosing a neurodegenerative condition” (The Brigham and Women's Hospital, Inc., priority 2000, dated 2010).

Regarding `O=C(O)CN(CCN(CC(=O)O)CC(=O)O)CCN(CC(=O)O)CC(=O)O` [DTPA, diethylenetriaminepentaacetic acid], the “absolute log Ks for Cu” value in series [1] (Cu) is 22.0. Moreover, the “absolute log Ks for Fe” value in series [1] (Fe) is reported as 28.1. The “absolute log Ks for Zn” value in series [1] (Zn) was 19.3. For the same molecule, the “effect on Aβ-potentiated hTSLP aggregation” value in series [2] is “abolished aggregation”. Also, the “effect on increased β-sheet content” value in series [3] is listed as “blocked”. The “effect on bTLP aggregation” value in series [4] is given as “reduces the extent of bTLP aggregation”. Moreover, the “effect on protein precipitation” value in series [5] is “blocked”.
As for `O=C(O)CN(CCN(CC(=O)O)CC(=O)O)CC(=O)O` [EDTA, ethylenediaminetetraacetic acid], the “effect on bTLP aggregation” value in series [4] was “reduces the extent of bTLP aggregation”.
On to “recombinant human insulin: recombinant human insulin, negative control of approximately the same molecular weight as Aβ”, for which the “promotion of hTSLP/hTLP aggregation” value in series [2] was “none”; in series [2] (listed as insulin), “no effect on hTLP aggregation”.
“superoxide dismutase: antioxidant scavenging enzyme”: the “effect on Aβ-potentiated hTSLP aggregation” value in series [2] is given as “abolished aggregation”. Further, in series [3], the “effect on increased β-sheet content” value is given as “blocked”. For the same molecule, in series [4], the “effect on bTLP aggregation” value is on record as “reduces the extent of bTLP aggregation”. Besides, the “effect on protein precipitation” value in series [5] is “blocked”.
Consider “synthetic rat Aβ1-40: synthetic rat β-amyloid peptide 1-40, relatively redox inert control peptide (DAEFGHDSGFEVRHQKLVFFAEDVGSNKGAIIGLMVGGVV; Amyloid-beta protein 40; UniProt P08592 672-711, looked up)”, for which, in series [2], the “promotion of hTSLP/hTLP aggregation” value is on record as “none”.

B1: catalase: antioxidant scavenging enzyme (protein, UniProt P04040 2-527, looked up)
Catalase: ADSRDPASDQMQHWKEQRAAQKADVLTTGAGNPVGDKLNVITVGPRGPLLVQDVVFTDEMAHFDRERIPERVVHAKGAGAFGYFEVTHDITKYSKAKVFEHIGKKTPIAVRFSTVAGESGSADTVRDPRGFAVKFYTEDGNWDLVGNNTPIFFIRDPILFPSFIHSQKRNPQTHLKDPDMVWDFWSLRPESLHQVSFLFSDRGIPDGHRHMNGYGSHTFKLVNANGEAVYCKFHYKTDQGIKNLSVEDAARLSQEDPDYGIRDLFNAIATGKYPSWTFYIQVMTFNQAETFPFNPFDLTKVWPHKDYPLIPVGKLVLNRNPVNYFAEVEQIAFDPSNMPPGIEASPDKMLQGRLFAYPDTHRHRLGPNYLHIPVNCPYRARVANYQRDGPMCMQDNQGGAPNYYPNSFGAPEQQPSALEHSIQYSGEVRRFNTANDDNVTQVRAFYVNVLNEEQRKRLCENIAGHLKDAQIFIQKKAVKNFTEVHPDYGSHIQALLDKYNAEKPKNAIHTFVQSGSHLAAREKANL
Take B1: in series [2], the “effect on Aβ-potentiated hTSLP aggregation” value is recorded as “abolished aggregation”. Besides, in series [3], the “effect on increased β-sheet content” value was “blocked”. Besides, the “effect on bTLP aggregation” value in series [4] was “reduces the extent of bTLP aggregation”. For the same molecule, the “effect on protein precipitation” value in series [5] is reported as “blocked”.
